The values below come from patent publication US10071034B2, “Solvent compositions” (Amyris, Inc., priority 2014, dated 2018).

A short description of the data set: Oxidative stability. It is filed as physicochemical. The procedure:
For each sample, a test composition was stored for 104 weeks at 25° C. The amount of composition remaining was tested and compared to the amount at the initial time. Further samples were stored for 6 days at 60° C. The amount of composition remaining was tested and compared to the amount at the initial time.

With `C=C(C)[C@H]1CC=C(C)CC1` [d-limonene], the “amount of composition remaining compared to initial” value is, setting by setting: (6 Days @ 60° C.) 52.3%; (104 Weeks @ 25° C.) 24.0%. Also, under “d-limonene versus Example 2 composition”, the “oxidative stability in comparison” value was “less than that of the present solvent embodiment”.
